Test results: PubChem BioAssay AID330 (DTP/NCI, 2004)
Where “and” joins values, the source holds several entries; their conditions need not be identical. Identical values can stand only once. Toxic doses and inconclusive results are not listed. The calls were made as follows: active = survival T/C of 150% or more; inactive = T/C below 125% in these data.

Tested on: P388 leukemia ip, CD2F1 mice, survival T/C
Assay: NCI In Vivo Anticancer Drug Screen. Data for tumor model P388 Leukemia (intraperitoneal) in CD2F1 (CDF1) mice
Conditions: endpoint: median survival time, higher = longer survival
Summary of the method: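 Mice carrying the transplanted tumor received test compound or vehicle. Survival was recorded in each group, and the value is the treated-group measurement divided by that of the vehicle-treated control group.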

[1] = dose: 60.0 mg/kg/injection, schedule: Q01DX005 (ip), vehicle: saline with Tween-80
[2] = dose: 50.0 mg/kg/injection, schedule: Q01DX009 (ip), vehicle: saline with Tween-80
[3] = dose: 100.0 mg/kg/injection, schedule: Q01DX009 (ip), vehicle: saline with Tween-80
[4] = dose: 200.0 mg/kg/injection, schedule: Q01DX009 (ip), vehicle: saline with Tween-80
[5] = dose: 120.0 mg/kg/injection, schedule: Q01DX005 (ip), vehicle: saline with Tween-80
[6] = dose: 240.0 mg/kg/injection, schedule: Q01DX005 (ip), vehicle: saline with Tween-80

Measured: T/C

Nc1cnns1
inactive: dose: 11.25 mg/kg/injection, schedule: Q01DX009 (ip), vehicle: water 100 % of control | dose: 22.5 mg/kg/injection, schedule: Q01DX009 (ip), vehicle: water 102 % of control | dose: 45.0 mg/kg/injection, schedule: Q01DX009 (ip), vehicle: water 105 % of control | dose: 90.0 mg/kg/injection, schedule: Q01DX009 (ip), vehicle: water 119 % of control | dose: 180.0 mg/kg/injection, schedule: Q01DX009 (ip), vehicle: water 105 % of control

N=c1nc(N)nc2c3ccccc3nnn12
inactive: dose: 15.0 mg/kg/injection, schedule: Q01DX005 (ip), vehicle: saline with Tween-80 109 % of control | dose: 30.0 mg/kg/injection, schedule: Q01DX005 (ip), vehicle: saline with Tween-80 109 % of control | [1] 106 % of control and 109 % of control

C(=C1/SC(c2ccccc2)=NC1c1ccccc1)/c1ccccc1 (stereo unspecified)
inactive: [2] 92 % of control | [3] 88 % of control | [4] 96 % of control

Cc1cc2cc(C)c3c(Cl)nnc(Cl)c3c2o1
inactive: dose: 50.0 mg/kg/injection, schedule: Q01DX005 (ip), vehicle: saline with Tween-80 106 % of control | dose: 100.0 mg/kg/injection, schedule: Q01DX005 (ip), vehicle: saline with Tween-80 103 % of control | dose: 200.0 mg/kg/injection, schedule: Q01DX005 (ip), vehicle: saline with Tween-80 100 % of control

CCOC(=O)CC(C)=N
inactive: dose: 25.0 mg/kg/injection, schedule: Q01DX009 (ip), vehicle: saline with Tween-80 112 % of control | [2] 99 % of control and 110 % of control and 114 % of control | [3] 106 % of control and 107 % of control and 113 % of control | [4] 103 % of control and 109 % of control and 123 % of control | dose: 400.0 mg/kg/injection, schedule: Q01DX009 (ip), vehicle: saline with Tween-80 103 % of control and 105 % of control

Cc1c(-c2ccccc2)noc1-n1nnc2ccccc2c1=O
inactive: [1] 100 % of control | [5] 100 % of control | [6] 89 % of control

CC(CN(C)C)C(/C=C/c1ccc(Cl)c(Cl)c1)=N\Nc1ccccc1 (stereo unspecified)
inactive: [1] 87 % of control | [5] 93 % of control | [6] 87 % of control

Cc1ccc(S(=O)(=O)NC(=O)NC(=S)c2cccs2)cc1
inactive: dose: 50.0 mg/kg/injection, schedule: Q01DX001 (ip), vehicle: saline with Tween-80 98 % of control | dose: 100.0 mg/kg/injection, schedule: Q01DX001 (ip), vehicle: saline with Tween-80 97 % of control | dose: 200.0 mg/kg/injection, schedule: Q01DX001 (ip), vehicle: saline with Tween-80 91 % of control

COc1cc2c(cc1OC)C(N)CCC2 (stereo unspecified)
inactive: dose: 6.25 mg/kg/injection, schedule: Q01DX009 (ip), vehicle: water 104 % of control | dose: 12.5 mg/kg/injection, schedule: Q01DX009 (ip), vehicle: water 96 % of control | dose: 25.0 mg/kg/injection, schedule: Q01DX009 (ip), vehicle: water 99 % of control | dose: 50.0 mg/kg/injection, schedule: Q01DX009 (ip), vehicle: water 96 % of control | dose: 100.0 mg/kg/injection, schedule: Q01DX009 (ip), vehicle: water 101 % of control

N#CC12C3C4C5C3C1C(C42)n1c(=O)n(-c2ccccc2)c(=O)n15 (stereo unspecified)
inactive: dose: 12.5 mg/kg/injection, schedule: Q01DX009 (ip), vehicle: Klucel (hydroxypropylcellulose) (HPC) 89 % of control and 90 % of control | dose: 25.0 mg/kg/injection, schedule: Q01DX009 (ip), vehicle: Klucel (hydroxypropylcellulose) (HPC) 89 % of control and 92 % of control | dose: 50.0 mg/kg/injection, schedule: Q01DX009 (ip), vehicle: Klucel (hydroxypropylcellulose) (HPC) 90 % of control and 95 % of control | dose: 100.0 mg/kg/injection, schedule: Q01DX009 (ip), vehicle: Klucel (hydroxypropylcellulose) (HPC) 98 % of control | dose: 200.0 mg/kg/injection, schedule: Q01DX009 (ip), vehicle: Klucel (hydroxypropylcellulose) (HPC) 95 % of control

CC(Cl)C(=O)Nc1cc2ccccc2oc1=O (stereo unspecified)
inactive: [1] 106 % of control | [5] 94 % of control | [6] 93 % of control

NC(CCS(=O)(=O)NCc1ccc(S(=O)(=O)F)cc1)C(=O)O (stereo unspecified)
inactive: dose: 12.5 mg/kg/injection, schedule: Q01DX009 (ip), vehicle: other 104 % of control | dose: 25.0 mg/kg/injection, schedule: Q01DX009 (ip), vehicle: other 103 % of control | dose: 50.0 mg/kg/injection, schedule: Q01DX009 (ip), vehicle: other 100 % of control | dose: 100.0 mg/kg/injection, schedule: Q01DX009 (ip), vehicle: other 96 % of control | dose: 200.0 mg/kg/injection, schedule: Q01DX009 (ip), vehicle: other 88 % of control
